# From US20120128654A1, “Allantoin Administration for the Treatment of Neurodegenerative Disease and Neurotrauma” (UNIVERSITY OF CINCINNATI, priority 2009, published 2012)
# Entries after “also recorded” stand apart in the source; their conditions may differ.
# Experiments:
# [1] = Oral allantoin administration, plasma allantoin levels in monkeys; assay type: in vivo, African green monkey
# Method: To determine whether oral allantoin administration could increase plasma levels of allantoin in non-human primates, African green monkeys were fed allantoin (n=4). All monkeys were initially fed 26 mg/kg/day for 1 week, after which the allantoin concentration was increased to a level of 52 mg/kg/day for an additional week. The allantoin was mixed to the appropriate concentration in fruit juice and given to the monkeys to drink. For plasma analysis of allantoin venous blood was obtained from the right ventricle (rat) and collected from repeated blood draws (African green monkey). Blood was immediately centrifuged at 10,500 rpms (this needs to be in G) for 5 minutes. Supernatant was then removed and analyzed for allantoin. Enzymatic detection of allantoin was performed as previously described with the exception of reaction volumes being adjusted to accommodate the use of a 96 well microtiter plate (Muratsubaki et al., Enzymatic assay of allantoin in serum using allantoinase and allantoate amidohydrolase, Anal. Biochem. 359:161-166 (2006)). […] Following a 15 minute incubation, absorbance was read on a spectrometer at 340 nm. […] Following a 10 minute incubation absorbance was once again measured at 340 nm. The final absorbance was subtracted from the absorbance following the addition of allantoinase. […] Allantoin levels in plasma were determined utilizing the enzymatic detection assay. […]
# [2] = in vivo; cited from earlier work
# [3] = Oral allantoin administration (gavage), plasma allantoin levels in rats; assay type: in vivo, Sprague Dawley rats
# Method: Rats also received oral allantoin via gastric gavage. Rats were firmly restrained via grasping the loose skin of the neck and back to immobilize the head. While maintaining the rat in an upright position, the gavage needle (20 G×1½″) was passed through the side of the mouth and advanced into the esophagus by following the roof of the mouth and advanced further toward the stomach. After the needle was passed to the correct length, 125 mg of allantoin, dissolved in water or water, was injected. This procedure was repeated daily for five days.
# For plasma analysis of allantoin venous blood was obtained from the right ventricle (rat) and collected from repeated blood draws (African green monkey). Blood was immediately centrifuged at 10,500 rpms (this needs to be in G) for 5 minutes. Supernatant was then removed and analyzed for allantoin. […] Following a 15 minute incubation, absorbance was read on a spectrometer at 340 nm. […] Following a 10 minute incubation absorbance was once again measured at 340 nm. The final absorbance was subtracted from the absorbance following the addition of allantoinase. […]
# Rats received oral allantoin or water via gavage once daily for 5 days. […] Allantoin levels in plasma were determined utilizing the enzymatic detection assay. […]
# [4] = test system: cortex and hippocampus apoptosis; conditions: twice daily i.p., neonatal MCA occlusion; cited from earlier work
# [5] = test system: retinal ganglion cells; conditions: repeated i.p. every eight hours, optical nerve transection, adult rats; cited from earlier work
Compound,"plasma allantoin levels ([1]; African green monkey, oral, after one week at 52 mg/kg/day (following 1 week at 26 mg/kg/day), vs baseline, trough)","negative health consequences ([1]; monkeys, oral allantoin 26 then 52 mg/kg/day, 1 week each)",antioxidant properties [2],"plasma allantoin levels ([3]; rat, 125 mg oral gavage once daily for 5 days, blood two hours following final dose, vs water)","negative health consequences ([3]; rats, oral allantoin once daily for 5 days)",Cytochrome C expression in the cortex and hippocampus [4],TUNEL staining in the cortex and hippocampus [4],sparing of retinal ganglion cells [5]
NC(=O)NC1NC(=O)NC1=O (centres unmarked) [allantoin],tripling,Neither the rats nor the monkeys exhibited any obvious negative health consequences,antioxidant properties in vivo,doubling; also recorded: significant increase,Neither the rats nor the monkeys exhibited any obvious negative health consequences,–,–,–
OC[C@H]1O[C@@H](n2cnc3c(O)ncnc32)[C@H](O)[C@@H]1O [inosine],–,–,–,–,–,decreased,decreased,significant sparing
